In patent EP0745595A1, “3-(3-Aryloxyphenyl)-1-(substituted methyl)-s-triazine-2,4,6-oxo or thiotrione herbicidal agents” (American Cyanamid Company, priority 1995, dated 1996):

Columns and labels:
Assay type in all cases: in vivo
IPOMOEA SPP. = assay: Postemergence herbicidal evaluation, IPOSS (Morningglory spp.)
Description: (§1) In the tests, seedling plants are grown in jiffy flats for about two weeks. The test compounds are dispersed in 50/50 acetone/water mixtures containing 0.5% TWEEN®20, a polyoxyethylene sorbitan monolaurate surfactant of Atlas Chemical Industries, […] to the plants through a spray nozzle operating at 40 psi for a predetermined time. After spraying, the plants are placed on greenhouse benches and are cared for in the usual manner, commensurate with conventional greenhouse practices. From four to five weeks after treatment, the seedling plants are examined and rated according to the rating system set forth below. Where more than one test is involved for a given compound, the data are averaged.
(§2) Plant species employed in these evaluations are reported by header abbreviation, common name and scientific name.
(§3) Results of herbicide evaluation are expressed on a rating scale (0-9). The scale is based upon a visual observation of plant stand, vigor, malformation, size, chlorosis and overall plant appearance as compared with a control.

[1] = tested on: GLYCINE MAX(L) MERR. CV. WILLIAMS; assay: Postemergence herbicidal evaluation, GLXMAW (Soybean, Williams); design: key to GLXMAW rating / Herbicidal effect rating, GLXMAW / GLXMAW: 0-9 visual rating scale vs untreated control
Description: (§4) In the tests, seedling plants are grown in jiffy flats for about two weeks. The test compounds are dispersed in 50/50 acetone/water mixtures containing 0.5% TWEEN®20, a polyoxyethylene sorbitan monolaurate surfactant of Atlas Chemical Industries, in sufficient quantities to provide the equivalent of about 0.125 kg to 0.500 kg per hectare of active compound when applied to the plants through a spray nozzle operating at 40 psi for a predetermined time. After spraying, the plants are placed on greenhouse benches and are cared for in the usual manner, commensurate with conventional greenhouse practices. From four to five weeks after treatment, the seedling plants are examined and rated according to the rating system set forth below. Where more than one test is involved for a given compound, the data are averaged.
as §2, §3

ZEA MAYS L. = assay: Postemergence herbicidal evaluation, ZEAMX (Corn, Field)
Description: as §1, §2, §3

[2] = tested on: AMBROSIA ARTEMISIIFOLIA, L.; assay: Postemergence herbicidal evaluation, AMBEL (Ragweed, Common)
Description: as §1, §2, §3

CHENOPODIUM ALBUM, L. [3] = assay: Preemergence herbicidal evaluation, CHEAL (Lambsquarters, Common);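 note: higher means more injury with 8 approaching complete kill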
Source text: as §3
The preemergence herbicidal activity of the test compounds of the present invention is exemplified by the following tests in which the seeds of a variety of monocotyledonous and dicotyledonous plants are separately mixed with potting soil and planted on top of approximately one inch of soil in separate pint cups. […] The treated cups are then placed on greenhouse benches, watered and cared for in accordance with conventional greenhouse procedures. From four to five weeks after treatment, the tests are terminated and each cup is examined and rated according to the rating system provided in Example 40.
The compounds evaluated are reported by compound number given in Example 40.

CHENOPODIUM ALBUM, L. [4] = assay: Postemergence herbicidal evaluation, CHEAL (Lambsquarters, Common)
Description: as §1, §2, §3

[5] = tested on: ABUTILON THEOPHRASTI, MEDIC.; assay: Postemergence herbicidal evaluation, ABUTH (Velvetleaf)
Description: as §1, §2, §3

[6] = tested on: ECHINOCHLOA CRUS-GALLI, (L) BEAU; assay: Postemergence herbicidal evaluation, ECHCG (Barnyardgrass); design: key to ECHCG rating / Herbicidal effect rating, ECHCG / ECHCG: 0-9 visual rating scale vs untreated control
Description: as §4, §2, §3

[7] = tested on: SETARIA VIRIDIS, (L) BEAU; assay: Postemergence herbicidal evaluation, SETVI (Foxtail, Green); design: key to SETVI rating / Herbicidal effect rating, SETVI / SETVI: 0-9 visual rating scale vs untreated control
Description: as §4, §2, §3

Cn1c(=O)[nH]c(=O)n(-c2cc(Oc3c(F)cc(C(F)(F)F)cc3Cl)ccc2Br)c1=O [A, reference compound]
2.0: Herbicidal effect rating, GLXMAW ([1]; 0.063 kg/ha) | Herbicidal effect rating, ZEAMX (ZEA MAYS L.; 0.500 kg/ha) | Herbicidal effect rating, AMBEL ([2]; 0.125 kg/ha) | Herbicidal effect rating, ECHCG ([6]; 0.250 kg/ha) | Herbicidal effect rating, ECHCG ([6]; 0.500 kg/ha) | Herbicidal effect rating, SETVI ([7]; 0.125 kg/ha) | Herbicidal effect rating, SETVI ([7]; 0.250 kg/ha)
9.0: Herbicidal effect rating, IPOSS (IPOMOEA SPP.; 0.250 kg/ha) | Herbicidal effect rating, IPOSS (IPOMOEA SPP.; 0.500 kg/ha) | CHEAL (CHENOPODIUM ALBUM, L. [3]; Rate 0.063 kg/ha) | CHEAL (CHENOPODIUM ALBUM, L. [3]; Rate 0.125 kg/ha) | CHEAL (CHENOPODIUM ALBUM, L. [3]; Rate 0.250 kg/ha) | CHEAL (CHENOPODIUM ALBUM, L. [3]; Rate 0.500 kg/ha) | Herbicidal effect rating, CHEAL (CHENOPODIUM ALBUM, L. [4]; 0.063 kg/ha) | Herbicidal effect rating, CHEAL (CHENOPODIUM ALBUM, L. [4]; 0.125 kg/ha) | Herbicidal effect rating, CHEAL (CHENOPODIUM ALBUM, L. [4]; 0.250 kg/ha) | Herbicidal effect rating, CHEAL (CHENOPODIUM ALBUM, L. [4]; 0.500 kg/ha) | Herbicidal effect rating, ABUTH ([5]; 0.500 kg/ha)
7.0: Herbicidal effect rating, IPOSS (IPOMOEA SPP.; 0.125 kg/ha)
5.0: Herbicidal effect rating, GLXMAW ([1]; 0.500 kg/ha) | Herbicidal effect rating, AMBEL ([2]; 0.500 kg/ha) | Herbicidal effect rating, ABUTH ([5]; 0.063 kg/ha) | Herbicidal effect rating, SETVI ([7]; 0.500 kg/ha)
6.0: Herbicidal effect rating, IPOSS (IPOMOEA SPP.; 0.063 kg/ha) | Herbicidal effect rating, ABUTH ([5]; 0.125 kg/ha) | Herbicidal effect rating, ABUTH ([5]; 0.250 kg/ha)
1.0: Herbicidal effect rating, AMBEL ([2]; 0.063 kg/ha)
3.0: Herbicidal effect rating, GLXMAW ([1]; 0.125 kg/ha) | Herbicidal effect rating, GLXMAW ([1]; 0.250 kg/ha)
0.0: Herbicidal effect rating, ZEAMX (ZEA MAYS L.; 0.063 kg/ha) | Herbicidal effect rating, ZEAMX (ZEA MAYS L.; 0.125 kg/ha) | Herbicidal effect rating, ZEAMX (ZEA MAYS L.; 0.250 kg/ha) | Herbicidal effect rating, ECHCG ([6]; 0.063 kg/ha) | Herbicidal effect rating, ECHCG ([6]; 0.125 kg/ha) | Herbicidal effect rating, SETVI ([7]; 0.063 kg/ha)
